# Experimental data from patent publication US10984891B2, “Methods for global RNA-chromatin interactome discovery” (The Regents of the University of California, priority 2016, dated 2021).
# Experiments:
# MDA-MB-231 cells = experiment: GRO-seq (global nuclear run-on), transcriptional response to JQ1; format: cell-based, Human; conditions: 500 nM JQ1, 6 h vs 0.05% DMSO, FIG. 12K
# Method: Cell culture. MDA-MB-231 breast cancer cells (HTB-26 ATCC) and MM.1S multiple myeloma cells were grown at 37° C. and 5% CO2. MDA-MB-231 cells were cultured in Dulbecco's Modified Eagle Medium (Thermo Fisher Sci.) supplemented with 10% fetal bovine serum. MM.1S cells were cultured in RPMI-1640 supplemented with 1% GlutaMAX (Thermo Fisher Sci.) and 10% fetal bovine serum. […] Drosophila S2 cells were cultured in Schneider's Drosophila Medium (Thermo Fisher Sci.) supplemented with 10% fetal bovine serum and 2 mM L-glutamine (Thermo Fisher Sci.), at ambient temperature in ambient CO2.
# Functional perturbation of general enhancer activities. […] To quantify transcription activities in an unbiased manner, GRO-seq read densities were initially normalized using total uniquely-mapped read numbers to remove variations between libraries. To minimize the bias introduced by promoter pausing or gene length, only reads that were aligned within the 2 Kb region 1 Kb downstream from the TSS were selected to calculate the transcription activity. For multi-isoform genes, the transcript with highest read counts within the 2 Kb window was selected to represent the gene's transcription activity. Public datasets analyzed. The data of RNA Pol II ChIP-seq for MDA-MB-231 cells were obtained from European Genome-phenome Archive (www.ebi.ac.uk/ega). […]
# MM.1S cells = conditions: cited from earlier work
compound,measurement,setting,value
Cc1sc2c(c1C)C(c1ccc(Cl)cc1)=N[C@@H](CC(=O)OC(C)(C)C)c1nnc(C)n1-2 [JQ1],transcriptional response to JQ1 (GRO-seq): genes associated with top 10% vs bottom 10% RNA-decorated enhancers,MDA-MB-231 cells,The same conclusions were reached
same,response of gene expression to JQ1: genes associated with at least one super-enhancer vs only typical enhancers,"MM.1S cells; GRID-seq inferred connectivity within 50 Kb range, same without range, FIG. 14E, F",more responsive
same,response of gene expression to JQ1: genes associated with top 10% vs bottom 10% RNA-decorated enhancers,"MM.1S cells; genes within ±50 Kb of enhancers, FIG. 13E",more responsive
